“Also recorded” adds a separate entry of the source. Like-named read-outs stand apart in the source and are kept apart here.

One series is described as follows: Reversion to retinol. The series is classed as in vitro ADME.
The subject of another series is B lymphocytes. Kind of series: B cell growth/survival. The format is cell-based. The conditions noted are these: on a concentration basis.
Series [1] can be described thus: Stability (half-life) in serum-free tissue culture. The format is in vitro ADME.
Series [2] can be described thus: Chemical stability during extraction. The series is classed as physicochemical.
The subject of the next series is 26 mammalian cells. Kind of series: 14HRR production from 3H retinol in mammalian cell lines. The series is classed as in vitro ADME. The following applies: 3H retinol bound to fetal calf serum. The text has this: The use of ^3 H retinol bound to fetal calf serum was used as an assay to test for P3 in other cell lines.
The use of ^3 H retinol bound to fetal calf serum was used as an assay to test for 14HRR in other cell lines.

The next series concerns 5/2 lymphoblastoid cells. The series is classed as in vitro ADME, human. How it is done: FIG. 24. Kinetics of biosynthesis of 14HRR in lymphoblastoid cells. 50 ml ITLB 600,000 5/2 cells/ml were incubated with 20 μCi of ^3 H retinol in serum-free ITLB medium. Cell pellets corresponding to 10 ml of culture were delipidated at 20 minute intervals and the corresponding lipid fraction separated on an analytical C18 reversed-phase column (see FIG. 20). Radioactive peaks were identified by coelution with cold reference retinoids.
The kinetics of biosynthesis of 13,14DHR and 14HRR were determined in 5/2 lymphoblastoid cells. These cells were cultured in the presence of ^3 H retinol for different time periods, and the cell-associated retinoids extracted as referenced above. They were then chromatographed on an analytical C18 column as described in FIG. 20. The sizes of peaks emerging at 16.8 minutes, representing 13,14DHR, and 18.5 minutes, representing 14HRR, were measured and plotted in the bar diagram of FIG. 24.

Series [3] deals with thymocytes. Kind of series: Proliferation of Con A activated thymocytes in serum-free medium. The format is cell-based, BALB/c mouse. The following applies: Con A 0.5 μg/ml, retinol 3×10^-6 M, ITLB. How it is done: Purified thymocytes (5×10^5 cells/well) were stimulated by TCR crosslinking with immobilized anti-CD3e antibody (FIG. 15A) or 0.4 μg/ml Con A (FIG. 15B) in serum-free ITLB medium. The indicated amounts of retinoids were added either once at the beginning of the experiment (marked as "1x") or every 12 hours thereafter (marked as "6x"). DNA synthesis was measured after 72 hours by tritiated thymidine uptake as described.
Thymuses of 3 to 6-week-old BALB/c mice were teased in serum-free RPMI medium supplemented with 1% BSA, 10^-6 M linoleic acid and antibiotics. […] Cell viability was evaluated by trypan blue dye exclusion. To determine the extent of depletion of accessory cells, samples were stained with FITC-conjugated anti-Fc receptor antibody and analyzed by flow cytometry on a FACScan instrument (Becton Dickinson). No FcR-bearing cells were detected by this procedure.
Cells were cultured in serum-free medium, referred to as ITLB, containing RPMI 1640 supplemented with 8×10^-7 M insulin (5 μg/ml), 7×10^-8 M transferrin (5 μg/ml), 2×10^-6 M linoleic acid, 2×10^-6 M delipidated BSA (0.12 mg/ml), 2 mM L-glutamine, 1 mM sodium pyruvate and antibiotics. […] The optimal concentration for stimulation of T cells was determined for each batch of anti-CD3 mAb and Con A. The optimal range of Con A was particularly narrow in serum-free medium (0.5-0.2 μg/ml) and varied with the cell density used. […]

The conditions of series [4]: cited from earlier work.
In series [5] the test system is thymocytes. Kind of series: Growth-stimulating effect of retinol on anti-CD3 activated thymocytes in the presence of interleukins. The following applies: 3 days. The format is cell-based, BALB/c mouse.
In a further series the test system is Ket. Kind of series: Retinol metabolism. The format is in vitro ADME, human. As to the method:
(§1) FBS. The FBS was preincubated at room temperature with 14.4 uCi [^3 H
(§2) retinol (NEN) for 4 h. The cell pellet was washed twice with PBS. The
(§3) retinoid were extracted according to MClean et al. 90 and separated on an
(§4) analytical c18 reverse phase column according to FIG. 7. The DPM wer
(§5) determined using an online scintillation counter.

A further series has as its system SK-N-SH. Kind of series: Retinol metabolism. The series is classed as in vitro ADME, human. As to the method: as §1, §2, §3, §4, §5

For the compound `CC(C=CC=C(C)C(O)CO)=CC=C1C(C)=CCCC1(C)C` (stereo not drawn) [14HRR, 14-hydroxy-4,14-retro-retinol], in the series “Reversion to retinol”, the reversion to retinol result was “does not revert to retinol”. The “activity relative to all-trans retinol in B cells” value in the series on B lymphocytes was 10-30 fold more active. Moreover, the “lability relative to retinal” value in series [1] is recorded as “much more labile molecule than retinal”. In series [2] (acid extraction step), the “stability to acid extraction” value is recorded as “does not survive an acid extraction step”. Further, the stability in chloroform entry in [2] (chloroform) is reported as “unstable in chloroform”.

A word on the half-life: it is how long it takes for the measured level to halve. For `CC1=C(/C=C/C(C)=C/C=C/C(C)=C/CO)C(C)(C)CCC1` [retinol, all-trans retinol], the “radioactivity peak at 14HRR (P3) position” value in the series with 26 mammalian cells is listed as “radioactivity peak at the position where 14HRR normally elutes; also recorded: radioactivity peak at the position where P3 normally elutes”. Moreover, in the series with 5/2 lymphoblastoid cells, the “order of metabolite production” value is “production of 13,14DHR precedes that of 14HRR”. Further, in the series with thymocytes [3], the thymocyte proliferation result is listed as “growing exponentially”. In addition, the half-life in series [4] (cell culture, serum-free medium (32)) is less than 24 h; in [4] (serum-free tissue culture medium (32)), approximately 24 h. In the series with thymocytes [5], the “CPM anti-CD3, 10^-6 M Retinol” value was 79,247 ± 17,567 CPM. The Total cts. in the series on Ket is 4.6 × 10^5 cts; in the series with SK-N-SH, 2.0 × 10^5 cts. The “Ester (% of taken up retinol)” value in the series with Ket (overnight) is recorded as 41%; in the series on SK-N-SH (overnight), 25%. In addition, the entries for the “P3 (% of taken up retinol)” value in the series with Ket (overnight) and in the series on SK-N-SH (overnight) were 3% and 0.9%, respectively. Besides, the “Retinol (% of taken up retinol)” value in the series with Ket (overnight) is reported as 52%.

The values are drawn from patent US5908868A, “Retinol derivatives useful for enhancing immune response” (priority 1995, dated 1999).
